Tested on: tandem Na+ and c-di-AMP riboswitch (DUF1646_cdA_WT transcript) (RNA, riboswitch) AUUUAUAAGGUUACUUUCGGUUGGAAUGGUUAUUACCAUUUUCAAGAGAAGCGGGCUCUGGGGUGGGAGGCUACCAAAUAUUGGUAUAGCUAUCCACCUUUAUUUAUUUUUUUUAAGACAACAACUGAAUAUAUUUAUACGCUGAAUCCGUUAGGAACGGGAGACCCAAAUAAUAGGGGUGAAUCCAAAGCGGUUGCUUUGGUAGGGUUAAGCUCUUUCGACCCGAAUCCGUCAGCUAAUCUCGUAAGCGGUGGAAGAGAAGGUGAUUGAUAUGCUUAAUUACACCUUUAGUUAAGGUAUAUAUUUUAGCAUACGCUGCAGAUACUUCUCUGCAGCUUUUUGUUUUAUAUACCACAAAUGUUGAGGAUGACAAUCUUCAAUGAGAAUCUGAAGGAGGAAUUAAAUAAUAUGGGAUCCAAAGGA
Assay: in vitro single-round transcription termination
Conditions: K+ 100 mM, Mg2+ 4 mM; 40 mM Tris-HCl pH 7.5, 37 °C; E. coli RNA polymerase; functional co-transcriptional response, no constant

binding: yes
SMILES: Nc1ncnc2c1ncn2[C@@H]1O[C@@H]2COP(=O)(O)O[C@H]3[C@@H](O)[C@H](n4cnc5c(N)ncnc54)O[C@@H]3COP(=O)(O)O[C@H]2[C@H]1O
